Laboratory results: PubChem BioAssay AID1963426 (Molecular Pharmacology Branch, DTP, NCI, 2024)

System: 186277-243-T-J2-PDC complex spheroid growth, % test/control
Assay: Anticancer human tumor 186277-243-T-J2-PDC patient-derived colon adenocarcinoma cell line growth inhibition [Asc]
Conditions: for IC50: curve of first compound; for viability, T/C: stronger effect = lower value
In short: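 Stromal components (HUVEC and hMSC) are co-assembled with the cancer cells into multicellular spheroids. Drugs are then added singly or paired, at concentrations falling by half-log increments from a clinically achievable maximum, capped at 10 microM without known Cmax.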
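Note: spheroids exposed to agents for 7 days.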
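Throughout, for viability, T/C: 100% = DMSO vehicle control wells.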

COc1c(OCCCN2CCOCC2)ccc2c3n(c(=NC(=O)c4cnc(N)nc4)nc12)CCN3 + CNC(C)C(=O)NC1CN(S(=O)(=O)c2cccc(S(=O)(=O)N3CCC4CCC(C(=O)NC(c5ccccc5)c5ccccc5)N4C(=O)C(NC(=O)C(C)NC)C3)c2)CCC2CCC(C(=O)NC(c3ccccc3)c3ccccc3)N2C1=O gave an IC50 (second compound 0.01 µM) of 72.3 nM, an IC50 (second compound 0.0316 µM) of 98.2 nM and an IC50 (second compound 0.1 µM) of 82.1 nM. For the same compound, the IC50 (second compound 0.316 µM) was 86.3 nM, the IC50 (second compound 1 µM) was 84.8 nM and the viability, T/C (second compound 0.01 µM, first compound 0.00316 µM) was 98.5%. It also gave a viability, T/C (second compound 0.01 µM, first compound 0.01 µM) of 105%, a viability, T/C (second compound 0.01 µM, first compound 0.0316 µM) of 62.4% and a viability, T/C (second compound 0.01 µM, first compound 0.1 µM) of 47.4%. The viability, T/C (second compound 0.01 µM, first compound 0.316 µM) was 25.2%, the viability, T/C (second compound 0.01 µM, first compound 1 µM) was 19.6% and the viability, T/C (second compound 0.0316 µM, first compound 0.00316 µM) was 99.3%. It also gave a viability, T/C (second compound 0.0316 µM, first compound 0.01 µM) of 128%, a viability, T/C (second compound 0.0316 µM, first compound 0.0316 µM) of 77.7% and a viability, T/C (second compound 0.0316 µM, first compound 0.1 µM) of 54.3%. It also gave a viability, T/C (second compound 0.0316 µM, first compound 0.316 µM) of 24.9%, a viability, T/C (second compound 0.0316 µM, first compound 1 µM) of 19.1% and a viability, T/C (second compound 0.1 µM, first compound 0.00316 µM) of 114%. It also gave a viability, T/C (second compound 0.1 µM, first compound 0.01 µM) of 120%, a viability, T/C (second compound 0.1 µM, first compound 0.0316 µM) of 68.3% and a viability, T/C (second compound 0.1 µM, first compound 0.1 µM) of 50.9%. It also gave a viability, T/C (second compound 0.1 µM, first compound 0.316 µM) of 25.1%, a viability, T/C (second compound 0.1 µM, first compound 1 µM) of 18.1% and a viability, T/C (second compound 0.316 µM, first compound 0.00316 µM) of 108%. It also gave a viability, T/C (second compound 0.316 µM, first compound 0.01 µM) of 113%, a viability, T/C (second compound 0.316 µM, first compound 0.0316 µM) of 74.9% and a viability, T/C (second compound 0.316 µM, first compound 0.1 µM) of 48.5%. It also gave a viability, T/C (second compound 0.316 µM, first compound 0.316 µM) of 25.6%, a viability, T/C (second compound 0.316 µM, first compound 1 µM) of 18.5% and a viability, T/C (second compound 1 µM, first compound 0.00316 µM) of 108%. For the same compound, the viability, T/C (second compound 1 µM, first compound 0.01 µM) was 104%, the viability, T/C (second compound 1 µM, first compound 0.0316 µM) was 75.2% and the viability, T/C (second compound 1 µM, first compound 0.1 µM) was 48.2%. It also gave a viability, T/C (second compound 1 µM, first compound 0.316 µM) of 21.3% and a viability, T/C (second compound 1 µM, first compound 1 µM) of 17.7%.
